Assay results: patent US4873346A, “Substituted benzothiazoles, benzimidazoles, and benzoxazoles” (The Upjohn Company, priority 1985, dated 1989)
Where a name gives a salt, the structure may show the parent alone.

Columns and labels:
mucus secretion = experiment: canine tracheal secretion model (inhibitory effect on mucus secretion); assay type: in vivo
Method: Several of the compounds of the present invention were also tested for their inhibitory effect on mucus secretion in the canine tracheal secretion model.

SRS-A formation = experiment: SRS-A inhibition in rat mononuclear cells challenged with calcium ionophore; assay type: cell-based; settings: cysteine
Method: This test is conducted in rat mononuclear cells incubated in the presence of cysteine and challenged with a calcium ionophore (which induces SRS-A formation).

lipoxygenase = lipoxygenase inhibition, oxygen uptake of washed human platelets after arachidonic acid; assay type: cell-based
Method: Some ot the compounds of the present invention were also tested for lipoxygenase inhibition. Arachidonic acid is added to washed human platelets and the oxygen uptake is measured using oxygraph cells. A decrease of oxygen uptake versus the control cell indicates inhibition of lipoxygenase. For a full description of the procedure see, Wallach, et al., Biochim, Biophys. Acta. 231:445 (1976).

C=CCNc1nc2ccc(O)cc2s1 [2-(2-propenylamino)-6-benzothiazolol, 2-(2-Propenylamino)-6-benzothiazolol]
inhibition of mucus secretion (in words) (mucus secretion): caused inhibition of mucus secretion | inhibition of the leukotriene system (in words) (SRS-A formation): active | inhibition of the lipoxygenase system (in words) (lipoxygenase): active

C=CCCCCSc1nc2ccc(O)cc2s1.O=C(O)/C=C\C(=O)O [2-(5-hexenylthio)-6-benzothiazolol maleic acid salt]
inhibition of mucus secretion (in words) (mucus secretion): caused inhibition

C=CCCCCSc1nc2ccc(O)cc2[nH]1 [2-(5-hexenylthio)-H-benzimidazol-6-ol, 2-(5-Hexenylthio)-1H-benzimidazol-6-ol]
inhibition of mucus secretion (in words) (mucus secretion): caused inhibition

CCN(CC)CCCNc1nc2ccc(O)cc2s1.Cl.Cl [2-[[3-(Diethylamino)propyl]amino]-6-benzothiazolol Dihydrochloride]
inhibition of mucus secretion (in words) (mucus secretion): caused inhibition

CCN(CC)CCCNc1nc2ccc(O)cc2s1 [2-[[3-(Diethylamino)propyl]amino]-6-benzothiazolol, hydroquinone dihydrochloride salt]
inhibition of mucus secretion (in words) (mucus secretion): caused inhibition

COC(=O)CCCCCNc1nc2ccc(O)cc2s1 [6-[(6-hydroxy-2-benzothiazolyl)aminohexanoic acid methyl ester]
inhibition on Indomethacin blocked/Arachidonic Acid (AA) induced mucus secretion (mucus secretion; Indomethacin blocked/AA induced): 100% | inhibition on baseline mucus secretion (mucus secretion; baseline): 21.8% | inhibition on hypoxia mucus secretion (mucus secretion; hypoxia): 63.4%

COC(=O)CCCCCSc1nc2ccc(NC(=O)CCC(=O)O)cc2s1 [6-[[6-[(3-Carboxy-1-oxopropyl)amino]-2-benzothiazolyl]thio]hexanoic acid methyl ester, tromethamine salt]
inhibition of mucus secretion (in words) (mucus secretion): caused inhibition
